Activity calls are given as the source filed them.
How the values were obtained:
[1] = target: Kallikrein-7 (Homo sapiens, UniProt P49862); test: Fluorescence Intensity-based biochemical primary high throughput dose response assay to identify activators of kallikrein-7 (K7) zymogen.
[2] = P. falciparum late gametocyte killing, dose response, luminescence (AID 1117278); assay type: functional, cell-based;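 also: gametocytes exposed to compound for 24 hours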
[3] = Jurkat T cell cytotoxicity, dose response, cytotoxicity control for P. falciparum gametocyte viability project, luminescence (AID 1117277); assay type: functional, cell-based;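 also: potency reflects loss of cellular ATP meaning fewer viable cells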
[4] = target: Mitogen-activated protein kinase 10 (Homo sapiens, UniProt P53779); test: Dose response biochemical screening assay for inhibitors of c-Jun N-Terminal Kinase 3 (JNK3). [Related pubchem assays: 746 ]
[5] = off-target signal loss in HeLa-CEM21 co-culture – HeLa F-luc CTL cells, cherry-picked, counter-screen for HIV-1 Env fusion inhibitor project, dose response (AID 652040); assay type: functional, cell-based;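 also: potency for signal decrease marking cytotoxic or nonspecific inhibition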
[6] = inhibitors of HIV Env-driven cell fusion, dose response, cherry-pick (AID 652057); assay type: functional, cell-based
[7] = target: T1, Long-chain-fatty-acid--AMP ligase FadD28 (Mycobacterium tuberculosis, UniProt P9WQ59); test: Fluorescence polarization aasay to screen for inhibitors that compete for the binding of FadD28 to a bisubstrate Measured in Biochemical System Using Plate Reader - 2147-01_Inhibitor_Dose_CherryPick_Activity.; assay type: functional, Mycobacterium tuberculosis H37Rv
T1 sequence (P9WQ59 whole entry): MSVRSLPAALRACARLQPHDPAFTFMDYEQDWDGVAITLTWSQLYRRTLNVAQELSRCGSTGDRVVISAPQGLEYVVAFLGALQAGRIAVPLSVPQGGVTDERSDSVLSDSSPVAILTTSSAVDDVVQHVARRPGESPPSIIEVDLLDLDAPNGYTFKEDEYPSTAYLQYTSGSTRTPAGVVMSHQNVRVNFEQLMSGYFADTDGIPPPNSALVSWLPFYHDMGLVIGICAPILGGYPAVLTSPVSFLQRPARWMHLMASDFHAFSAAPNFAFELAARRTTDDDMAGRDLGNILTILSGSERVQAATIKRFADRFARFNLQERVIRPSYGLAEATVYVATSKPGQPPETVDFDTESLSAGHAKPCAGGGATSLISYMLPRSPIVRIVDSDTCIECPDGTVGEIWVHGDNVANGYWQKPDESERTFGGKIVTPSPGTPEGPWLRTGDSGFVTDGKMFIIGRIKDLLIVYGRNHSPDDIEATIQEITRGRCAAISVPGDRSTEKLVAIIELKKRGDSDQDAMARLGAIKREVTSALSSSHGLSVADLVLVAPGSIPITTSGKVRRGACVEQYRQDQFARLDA

[8] = target: Voltage-dependent T-type calcium channel subunit alpha-1H (Homo sapiens, UniProt O95180); assay type: functional;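 also: channel activity triggered by adding a high calcium stimulation buffer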
[9] = inhibitors of clade B AD8 Env fusion, dose response, cell-based, cherry-pick (AID 652062); assay type: functional;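 also: luciferase signal from cell-cell fusion driven by HIV-1 clade B AD8 Env; potency is for inhibitors of fusion seen as a drop in luminescence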
[10] = target: T2, Calpain-2 catalytic subunit (Sus scrofa, UniProt P43367); test: pig calpain II inhibitor potency, dose response, biochemical, fluorogenic peptide substrate (AID 1420); assay type: functional
T2 sequence (P43367 whole entry): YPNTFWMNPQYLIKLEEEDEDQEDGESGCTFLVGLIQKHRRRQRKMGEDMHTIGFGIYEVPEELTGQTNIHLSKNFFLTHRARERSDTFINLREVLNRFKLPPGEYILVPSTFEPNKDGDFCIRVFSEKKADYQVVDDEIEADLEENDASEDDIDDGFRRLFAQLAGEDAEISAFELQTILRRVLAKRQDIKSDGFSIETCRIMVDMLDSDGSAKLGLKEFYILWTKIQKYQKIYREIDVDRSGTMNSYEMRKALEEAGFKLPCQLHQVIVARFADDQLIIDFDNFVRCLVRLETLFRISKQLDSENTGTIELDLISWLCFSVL

[11] = system: INS1; test: beta cell apoptosis inhibitors, cytokine rescue, dose response, luminescence, retest (AID 449756); assay type: functional, cell-based; conditions: Rattus norvegicus;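 also: cell death triggered by IL-1 beta plus TNF-alpha plus IFN-gamma mixture; protective hits raise ATP signal compared with cytokine alone wells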
[12] = target: T3, Small ubiquitin-related modifier 1 (Homo sapiens, UniProt P63165); test: inhibitors of SUMO1 partner interactions, dose response, biochemical, FRET (AID 624383); assay type: functional; conditions: read-out: IC50_Mean
[13] = THP-1 cell cytotoxicity, dose response, cytotoxicity control for Vif-APOBEC3G degradation inhibitor project, THP-1 cells (AID 1117359); assay type: functional; conditions: Human immunodeficiency virus 1, THP-1
[14] = target: T4, ORF 73 (Human herpesvirus 8, UniProt O40947); test: inhibitors of C-LANA binding to LBS DNA, dose response, biochemical, fluorescence polarization, cherry-picked samples (AID 504725); parameters: species or system Human gammaherpesvirus 8;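 also: fluorescence polarization of a labeled DNA duplex reporting LANA DNA binding; potency is for inhibitors that block LANA binding to the DNA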
T4 sequence (O40947 whole entry): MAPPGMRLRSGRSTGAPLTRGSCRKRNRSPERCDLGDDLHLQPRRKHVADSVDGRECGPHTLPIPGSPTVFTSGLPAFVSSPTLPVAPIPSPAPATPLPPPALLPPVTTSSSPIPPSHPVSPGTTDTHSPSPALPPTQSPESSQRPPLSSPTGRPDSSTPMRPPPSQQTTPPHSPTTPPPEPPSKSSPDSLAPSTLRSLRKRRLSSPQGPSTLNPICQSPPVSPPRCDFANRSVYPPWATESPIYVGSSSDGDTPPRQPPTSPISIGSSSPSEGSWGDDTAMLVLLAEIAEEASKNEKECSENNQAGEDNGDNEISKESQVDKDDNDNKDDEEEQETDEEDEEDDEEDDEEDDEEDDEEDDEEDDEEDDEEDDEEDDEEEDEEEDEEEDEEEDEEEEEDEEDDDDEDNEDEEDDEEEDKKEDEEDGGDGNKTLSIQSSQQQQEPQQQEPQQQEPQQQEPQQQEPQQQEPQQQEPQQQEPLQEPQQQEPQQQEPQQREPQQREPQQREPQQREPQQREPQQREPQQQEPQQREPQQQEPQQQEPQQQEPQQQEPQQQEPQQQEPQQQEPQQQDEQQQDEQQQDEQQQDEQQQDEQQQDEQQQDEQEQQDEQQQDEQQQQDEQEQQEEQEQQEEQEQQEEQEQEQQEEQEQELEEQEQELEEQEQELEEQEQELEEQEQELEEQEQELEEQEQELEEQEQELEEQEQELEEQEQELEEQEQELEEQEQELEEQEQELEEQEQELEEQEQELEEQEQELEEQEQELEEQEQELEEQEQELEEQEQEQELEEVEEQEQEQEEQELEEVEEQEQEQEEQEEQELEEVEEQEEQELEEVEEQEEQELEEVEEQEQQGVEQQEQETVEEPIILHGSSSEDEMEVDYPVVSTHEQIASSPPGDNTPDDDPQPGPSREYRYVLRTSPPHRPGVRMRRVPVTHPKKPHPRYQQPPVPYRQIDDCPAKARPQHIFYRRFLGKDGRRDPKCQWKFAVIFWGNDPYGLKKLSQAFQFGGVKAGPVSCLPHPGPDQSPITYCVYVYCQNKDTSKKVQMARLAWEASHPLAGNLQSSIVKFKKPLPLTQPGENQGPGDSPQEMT

[15] = target: T5, Rac GTPase-activating protein 1 (Homo sapiens, UniProt Q9H0H5); test: MgcRacGAP GTPase-activating activity inhibitors, confirmation, biochemical, ADP Hunter fluorescence, primary and confirmatory (AID 624330); assay type: functional
T5 sequence (Q9H0H5 whole entry): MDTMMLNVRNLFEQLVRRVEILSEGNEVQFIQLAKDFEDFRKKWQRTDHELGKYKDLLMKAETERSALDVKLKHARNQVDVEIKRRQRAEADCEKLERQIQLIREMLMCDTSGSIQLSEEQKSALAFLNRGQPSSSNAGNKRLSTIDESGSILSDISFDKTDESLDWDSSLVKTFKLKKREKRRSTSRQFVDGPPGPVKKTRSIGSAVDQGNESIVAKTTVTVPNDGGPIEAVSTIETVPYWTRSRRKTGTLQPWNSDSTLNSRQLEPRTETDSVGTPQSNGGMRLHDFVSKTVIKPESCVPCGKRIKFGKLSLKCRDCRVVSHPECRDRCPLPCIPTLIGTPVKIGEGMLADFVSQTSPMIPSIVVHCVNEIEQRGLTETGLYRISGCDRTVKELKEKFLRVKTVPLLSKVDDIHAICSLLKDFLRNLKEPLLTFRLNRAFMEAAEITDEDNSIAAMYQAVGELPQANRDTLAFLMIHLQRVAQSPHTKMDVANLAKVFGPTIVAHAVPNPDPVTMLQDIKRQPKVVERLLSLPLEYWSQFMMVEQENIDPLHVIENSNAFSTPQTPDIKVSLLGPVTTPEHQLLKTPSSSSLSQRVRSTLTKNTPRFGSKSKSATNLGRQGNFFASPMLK

[16] = target: T6, Histone-lysine N-methyltransferase NSD2 (Homo sapiens, UniProt O96028); assay type: biochemical
T6 sequence (O96028 whole entry): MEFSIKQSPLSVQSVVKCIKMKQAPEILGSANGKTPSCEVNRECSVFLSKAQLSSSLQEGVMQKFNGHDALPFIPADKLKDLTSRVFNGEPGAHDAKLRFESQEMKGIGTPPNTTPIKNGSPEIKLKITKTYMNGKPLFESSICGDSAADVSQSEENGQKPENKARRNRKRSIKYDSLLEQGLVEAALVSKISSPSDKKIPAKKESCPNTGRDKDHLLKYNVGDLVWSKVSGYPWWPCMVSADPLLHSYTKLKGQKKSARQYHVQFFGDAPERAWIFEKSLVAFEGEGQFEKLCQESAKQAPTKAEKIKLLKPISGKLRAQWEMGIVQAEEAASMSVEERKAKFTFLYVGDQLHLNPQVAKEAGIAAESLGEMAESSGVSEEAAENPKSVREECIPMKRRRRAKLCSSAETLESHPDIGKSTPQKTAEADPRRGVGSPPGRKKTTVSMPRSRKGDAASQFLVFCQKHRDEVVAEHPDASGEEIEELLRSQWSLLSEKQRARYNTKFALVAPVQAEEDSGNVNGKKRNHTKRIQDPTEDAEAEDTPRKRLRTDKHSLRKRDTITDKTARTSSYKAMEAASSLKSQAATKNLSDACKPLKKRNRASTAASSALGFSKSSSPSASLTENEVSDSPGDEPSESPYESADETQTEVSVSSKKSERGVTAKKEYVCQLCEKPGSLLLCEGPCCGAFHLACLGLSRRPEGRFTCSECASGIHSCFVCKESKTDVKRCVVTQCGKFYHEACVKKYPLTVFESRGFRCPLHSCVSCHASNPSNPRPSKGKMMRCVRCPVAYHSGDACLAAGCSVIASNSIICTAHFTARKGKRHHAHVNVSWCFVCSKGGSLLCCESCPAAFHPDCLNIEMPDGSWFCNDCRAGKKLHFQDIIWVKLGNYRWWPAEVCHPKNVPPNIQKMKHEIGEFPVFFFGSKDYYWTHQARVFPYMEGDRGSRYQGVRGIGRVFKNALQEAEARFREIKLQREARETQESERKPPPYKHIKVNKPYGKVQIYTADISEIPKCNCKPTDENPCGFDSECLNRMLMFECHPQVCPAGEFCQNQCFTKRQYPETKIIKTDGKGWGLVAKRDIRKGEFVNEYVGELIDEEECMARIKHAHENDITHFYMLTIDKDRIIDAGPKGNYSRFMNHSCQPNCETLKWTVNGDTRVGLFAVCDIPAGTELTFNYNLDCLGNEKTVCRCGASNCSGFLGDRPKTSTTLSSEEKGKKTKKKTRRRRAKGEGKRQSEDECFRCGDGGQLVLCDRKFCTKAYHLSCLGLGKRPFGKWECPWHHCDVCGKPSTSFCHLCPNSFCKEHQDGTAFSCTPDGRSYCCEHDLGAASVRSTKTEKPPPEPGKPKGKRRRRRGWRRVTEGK

[17] = target: Eukaryotic translation initiation factor 4E (Mus musculus, UniProt P63073); test: eIF4E–eIF4G protein interaction inhibitors, dose response, biochemical, TR-FRET (AID 855); assay type: functional;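 also: potency for disrupting eIF4E binding to eIF4GI seen as loss of FRET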
[18] = target: T3, Small ubiquitin-related modifier 1; test: inhibitors of SUMO1 peptide binding, dose response, biochemical, fluorescence polarization, uHTS hits (AID 624382); assay type: functional; conditions: read-out: IC50_Mean
[19] = target: Induced myeloid leukemia cell differentiation protein Mcl-1 (Homo sapiens, UniProt Q07820); assay type: functional
[20] = system: HEK293; test: HEK293T cell cytotoxicity, dose response, cytotoxicity control, ATP luminescence, cherry-pick samples (AID 687005); assay type: functional, cell-based; conditions: Homo sapiens;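 also: cells exposed to compound for 48 hours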
[21] = HEK293 Cytotoxicity Assay Measured in Cell-Based System Using Plate Reader - 7071-01_Inhibitor_Dose_CherryPick_Activity_Set2.; assay type: functional
[22] = inhibitors of Vif binding to APOBEC3G peptide, primary screen, biochemical, TR-FRET, GST-Vif 1-94, biotin-A3G peptide, dose response retest (AID 1117319); assay type: functional;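 also: TR-FRET signal of purified GST-Vif binding a biotinylated A3G peptide; inhibitors lower the FRET signal by blocking Vif and A3G binding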

Sequence of Kallikrein-7 (P49862 whole entry): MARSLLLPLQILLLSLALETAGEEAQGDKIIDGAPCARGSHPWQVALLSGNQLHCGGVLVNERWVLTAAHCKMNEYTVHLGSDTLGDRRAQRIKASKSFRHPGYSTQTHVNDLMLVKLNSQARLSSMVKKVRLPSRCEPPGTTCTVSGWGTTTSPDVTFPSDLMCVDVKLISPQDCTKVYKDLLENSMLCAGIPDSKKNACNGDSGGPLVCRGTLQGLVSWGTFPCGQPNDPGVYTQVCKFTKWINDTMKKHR
T3 sequence (P63165 whole entry): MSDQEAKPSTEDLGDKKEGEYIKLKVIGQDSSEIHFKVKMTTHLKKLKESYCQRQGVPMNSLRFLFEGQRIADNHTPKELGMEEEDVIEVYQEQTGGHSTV
Sequence of Mitogen-activated protein kinase 10 (P53779 whole entry, the tested form may be a part): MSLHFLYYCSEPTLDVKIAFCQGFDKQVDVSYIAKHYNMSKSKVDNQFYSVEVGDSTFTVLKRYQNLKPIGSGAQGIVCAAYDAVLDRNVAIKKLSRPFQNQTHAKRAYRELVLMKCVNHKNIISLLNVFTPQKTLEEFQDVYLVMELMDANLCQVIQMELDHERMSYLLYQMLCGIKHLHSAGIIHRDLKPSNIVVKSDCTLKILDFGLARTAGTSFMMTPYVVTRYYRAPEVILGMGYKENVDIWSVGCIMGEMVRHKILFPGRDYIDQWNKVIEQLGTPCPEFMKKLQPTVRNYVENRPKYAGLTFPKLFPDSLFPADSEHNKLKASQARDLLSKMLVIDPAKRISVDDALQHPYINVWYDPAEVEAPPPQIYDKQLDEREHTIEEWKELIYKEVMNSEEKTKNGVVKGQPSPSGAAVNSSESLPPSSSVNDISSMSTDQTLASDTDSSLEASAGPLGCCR
Sequence of Induced myeloid leukemia cell differentiation protein Mcl-1 (Q07820 whole entry): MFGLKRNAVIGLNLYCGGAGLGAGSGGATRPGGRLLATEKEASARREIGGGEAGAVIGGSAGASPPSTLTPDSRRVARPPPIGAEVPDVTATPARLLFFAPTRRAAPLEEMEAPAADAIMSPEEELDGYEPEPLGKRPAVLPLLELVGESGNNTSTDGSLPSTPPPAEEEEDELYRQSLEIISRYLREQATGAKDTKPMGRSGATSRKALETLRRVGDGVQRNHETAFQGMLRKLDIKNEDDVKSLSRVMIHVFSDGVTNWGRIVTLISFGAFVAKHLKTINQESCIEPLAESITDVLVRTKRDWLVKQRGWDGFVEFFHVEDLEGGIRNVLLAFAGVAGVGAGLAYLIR
Sequence of Voltage-dependent T-type calcium channel subunit alpha-1H (O95180 whole entry, the tested form may be a part): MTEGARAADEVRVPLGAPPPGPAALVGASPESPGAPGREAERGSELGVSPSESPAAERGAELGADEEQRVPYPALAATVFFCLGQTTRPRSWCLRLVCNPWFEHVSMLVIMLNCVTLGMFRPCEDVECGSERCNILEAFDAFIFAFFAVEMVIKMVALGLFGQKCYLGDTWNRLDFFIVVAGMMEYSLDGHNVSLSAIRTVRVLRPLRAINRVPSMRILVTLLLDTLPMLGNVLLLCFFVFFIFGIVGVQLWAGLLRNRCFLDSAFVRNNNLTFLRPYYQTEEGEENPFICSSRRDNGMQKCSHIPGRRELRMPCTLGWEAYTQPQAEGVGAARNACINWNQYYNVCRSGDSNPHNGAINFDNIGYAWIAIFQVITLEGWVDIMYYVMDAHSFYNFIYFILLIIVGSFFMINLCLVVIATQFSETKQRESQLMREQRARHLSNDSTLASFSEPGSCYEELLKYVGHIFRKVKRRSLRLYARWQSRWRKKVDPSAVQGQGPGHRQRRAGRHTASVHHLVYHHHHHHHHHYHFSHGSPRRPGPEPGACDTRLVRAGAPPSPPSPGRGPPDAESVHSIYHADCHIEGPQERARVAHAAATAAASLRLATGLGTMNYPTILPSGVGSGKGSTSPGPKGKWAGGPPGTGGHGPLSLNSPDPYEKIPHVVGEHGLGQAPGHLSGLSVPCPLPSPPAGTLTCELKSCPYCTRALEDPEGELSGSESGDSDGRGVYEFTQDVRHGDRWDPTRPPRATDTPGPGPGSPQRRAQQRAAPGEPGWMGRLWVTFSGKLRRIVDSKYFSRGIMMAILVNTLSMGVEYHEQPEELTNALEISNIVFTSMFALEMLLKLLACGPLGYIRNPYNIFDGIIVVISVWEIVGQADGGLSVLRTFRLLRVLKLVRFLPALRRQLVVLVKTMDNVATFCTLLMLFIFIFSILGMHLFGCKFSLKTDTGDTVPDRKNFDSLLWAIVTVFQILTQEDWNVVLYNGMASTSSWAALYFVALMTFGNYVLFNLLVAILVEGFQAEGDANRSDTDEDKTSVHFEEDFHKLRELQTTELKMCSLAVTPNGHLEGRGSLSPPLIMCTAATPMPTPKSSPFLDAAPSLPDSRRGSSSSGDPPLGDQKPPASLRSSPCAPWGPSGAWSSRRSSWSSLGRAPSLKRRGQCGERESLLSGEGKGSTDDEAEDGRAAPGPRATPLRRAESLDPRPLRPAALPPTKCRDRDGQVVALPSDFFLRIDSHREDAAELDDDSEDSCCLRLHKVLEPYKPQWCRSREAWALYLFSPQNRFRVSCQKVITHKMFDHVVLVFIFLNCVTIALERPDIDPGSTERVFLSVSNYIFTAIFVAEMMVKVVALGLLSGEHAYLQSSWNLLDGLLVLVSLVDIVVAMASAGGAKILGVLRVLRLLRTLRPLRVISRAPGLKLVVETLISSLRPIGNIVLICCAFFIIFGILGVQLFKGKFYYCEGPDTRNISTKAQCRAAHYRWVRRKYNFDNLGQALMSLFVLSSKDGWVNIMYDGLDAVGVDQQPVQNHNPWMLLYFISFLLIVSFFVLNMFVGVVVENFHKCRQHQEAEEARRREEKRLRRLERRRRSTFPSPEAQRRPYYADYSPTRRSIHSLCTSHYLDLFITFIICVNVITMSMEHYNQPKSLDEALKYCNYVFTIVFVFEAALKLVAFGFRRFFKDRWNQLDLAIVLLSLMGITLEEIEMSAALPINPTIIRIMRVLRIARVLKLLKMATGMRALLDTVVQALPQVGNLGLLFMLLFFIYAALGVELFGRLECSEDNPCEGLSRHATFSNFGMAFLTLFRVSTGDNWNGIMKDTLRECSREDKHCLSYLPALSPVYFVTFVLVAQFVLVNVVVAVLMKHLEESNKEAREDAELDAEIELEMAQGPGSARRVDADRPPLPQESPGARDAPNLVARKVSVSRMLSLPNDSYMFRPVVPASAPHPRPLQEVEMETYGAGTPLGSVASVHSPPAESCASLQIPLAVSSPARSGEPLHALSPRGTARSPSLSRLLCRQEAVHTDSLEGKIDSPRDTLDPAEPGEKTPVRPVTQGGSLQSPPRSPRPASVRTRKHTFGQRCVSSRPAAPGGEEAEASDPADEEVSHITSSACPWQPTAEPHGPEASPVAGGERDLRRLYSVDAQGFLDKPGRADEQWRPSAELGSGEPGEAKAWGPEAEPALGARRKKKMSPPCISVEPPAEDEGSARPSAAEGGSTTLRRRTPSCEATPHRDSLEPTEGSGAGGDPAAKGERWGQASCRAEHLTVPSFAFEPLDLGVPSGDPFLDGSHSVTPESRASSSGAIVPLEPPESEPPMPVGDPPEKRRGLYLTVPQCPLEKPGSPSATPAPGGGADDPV
Sequence of Eukaryotic translation initiation factor 4E (P63073 whole entry): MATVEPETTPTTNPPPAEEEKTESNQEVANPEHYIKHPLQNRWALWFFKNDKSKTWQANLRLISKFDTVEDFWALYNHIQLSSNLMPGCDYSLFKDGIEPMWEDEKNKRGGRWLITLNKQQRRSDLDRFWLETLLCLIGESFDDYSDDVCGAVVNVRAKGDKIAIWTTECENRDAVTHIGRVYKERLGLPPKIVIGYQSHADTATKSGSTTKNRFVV

With `Cc1coc2c1c(C)cc1oc(=O)c(CC(=O)NCCCCCC(=O)O)c(C)c12` the EC50 [1] was > 69.5 µM (inactive).

In the case of `N#Cc1c(SCC(N)=O)nc2c(c1-c1ccncc1)CCCC2`, the IC50 [2] was > 109 µM (inactive) and the IC50 [3] was > 83.3 µM (inactive).

In the case of `Cc1ccc(-c2cn3cccnc3n2)cc1NC(=O)c1ccc(Br)o1`, the EC50 [1] was > 69.5 µM (inactive).

With `COc1ccc(OC)c(/C=C/C(=O)OCC(=O)NCc2ccco2)c1` the EC50 [1] was > 69.5 µM (inactive).

For `Cc1ccc(-c2csc3nc(CN(C)Cc4ccccc4)nc(O)c23)cc1`, the IC50 [2] was > 109 µM (inactive) and the IC50 [3] was > 83.2 µM (inactive).

For `Cc1ccc(Nc2cc(-n3nc(C)cc3C)ncn2)cc1`, the IC50 [4] was 13.4 µM (not active).

For `Cc1ccc(CSCCNC(=O)c2ccc(Cl)c(S(=O)(=O)N3CCOCC3)c2)cc1`, the AC50 [5] was 54.5 µM (active), the AC50 [6] was 25.3 µM (active) and the AC50 [7] was 5.54 µM (active). For the same compound, the EC50 [8] was 4.41 µM (active) and the AC50 [9] was 7.44 µM (active).

In the case of `O=C(CN1CC[n+]2c(-c3cccs3)csc21)c1ccc(-c2ccccc2)cc1`, the IC50 [10] was 22.1 µM (not active), the AC50 [11] was 2.39 µM (active) and the IC50 [2] was > 109 µM (inactive). The IC50 [3] was > 83.3 µM (inactive).

For `CSc1ccc(/C=N/Nc2cccc(C(=O)O)c2)cc1`, the IC50 [12] was 6.71 µM (active), the CC50 [13] was > 40 µM (active) and the AC50 [14] was 19.8 µM (active). The IC50 [15] was 83.5 µM (active), the AC50 [16] was 2.93 µM (active) and the IC50 [17] was 50 µM (inactive). For the same compound, the IC50 [18] was > 66.6 µM (inactive) and the IC50 [19] was 2.19 µM (active).

For `COC(=O)C1=C(C)N(Cc2ccccc2)C(=O)N[C@H]1c1cccc(F)c1`, the AC50 [20] was 24.6 µM (active) and the AC50 [21] was 24.6 µM (active).

In the case of `CCn1c(S)nnc1Cc1c(C)[nH]c2ccccc12`, the IC50 [22] was > 100 µM (active).

For `C[C@@H]1CN([C@H](C)CO)S(=O)(=O)c2ccc(C#Cc3ccccn3)cc2O[C@H]1CN(C)Cc1ccccc1`, the AC50 [20] was 5.16 µM (active) and the AC50 [21] was 5.16 µM (active).
